Assay results as given in patent US20040152733A1, “Duloxetine for treatment of hot flashes” (priority 2004, published 2004).

Tests used:
hot flashes [1] = experiment: Randomized double-blind placebo controlled clinical trial of duloxetine for hot flashes (Example 1); conditions: Group 1: Duloxetine 60 mg QD + Placebo; eight to twelve weeks
Protocol: Patients eligible for a clinical trial include women who are either 1) naturally menopausal; or 2) pre-menopausal but had undergone bilateral oophorectomy surgery within four weeks prior to the commencement of the study. All the women in the study experience a minimum of thirty five hot flashes per week. […] The women or men are divided into two groups for a randomized double-blind placebo controlled study.
The groups receive drug or placebo as illustrated below:
Group 1: Duloxetine (60 mg QD)+Placebo
For three weeks both groups are administered placebo only. For eight to twelve weeks thereafter, each group is administered drug or placebo. Data is collected (numbers/severity of hot flashes experienced) from each participant during and at the end of the test period.

hot flashes [2] = conditions: menopausal women (survivors of breast cancer) suffering from hot flashes; versus only 20% with placebo; cited from earlier work

Row | Structure (SMILES) | incidence of hot flashes relative to the placebo groups (Groups 2 and 3) (hot flashes [1]) | treated menopausal women reporting a greater than 50% decrease in hot flash frequency (hot flashes [2])
1 | CNCCC(Oc1cccc2ccccc12)c1cccs1 (centres unmarked) [duloxetine, N-methyl-3-(1-naphthalenyloxy)-3-(2-thienyl)propanamine] | decrease | 
2 | COc1ccc(C(CN(C)C)C2(O)CCCCC2)cc1 (centres unmarked) [venlafaxine] |  | 45%
